Sander's compilation of Henry's law constants (doi:10.1021/ac00062a008)

Experiment: Henry solubility constant Hcp at 298.15 K (mol/(m3 Pa))
Conditions: reference: Zhang and Pawliszyn (1993)

Compound	Henry solubility constant Hcp
Cc1ccc(C)cc1 [1,4-dimethylbenzene]	0.0017
Cc1ccccc1 [methylbenzene]	0.0015
c1cc2c3c(cccc3c1)CC2 [acenaphthene]	0.11
Cc1ccccc1C [1,2-dimethylbenzene]	0.0027

The remaining lines, values ahead:

Henry solubility constant Hcp	Compound
0.0015	c1ccccc1 [benzene]
0.0025	CCc1ccccc1 [ethylbenzene]
9.4	c1ccc2c(c1)ccc1c3ccccc3ccc21 [chrysene]
0.25	c1ccc2c(c1)ccc1ccccc12 [phenanthrene]
0.11	c1ccc2cc3ccccc3cc2c1 [anthracene]
0.021	c1ccc2ccccc2c1 [naphthalene]
